In this test the target is T1, hGPR120 (Homo sapiens, UniProt Q5NUL3).
T1 construct: expressed in transfected cells; host or cells: CHO-K1
T1 sequence (Q5NUL3 1-361): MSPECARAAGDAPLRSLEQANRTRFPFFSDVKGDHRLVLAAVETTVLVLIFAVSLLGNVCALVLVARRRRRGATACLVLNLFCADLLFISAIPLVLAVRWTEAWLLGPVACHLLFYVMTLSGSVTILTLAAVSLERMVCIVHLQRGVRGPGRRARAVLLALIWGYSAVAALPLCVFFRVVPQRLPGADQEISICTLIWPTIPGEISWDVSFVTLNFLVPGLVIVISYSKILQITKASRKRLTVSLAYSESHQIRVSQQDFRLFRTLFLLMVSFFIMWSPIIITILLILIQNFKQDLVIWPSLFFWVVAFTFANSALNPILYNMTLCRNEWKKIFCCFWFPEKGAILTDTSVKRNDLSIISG
Kind of test: Measurement of Activity of GPR120 Agonist (Cell-Based Assay), Calcium 5 dye fluorescence. The settings on record: CHO-K1 cells expressing Ga16 and hGPR120. In short, it runs like this:
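Agonist-evoked calcium signal, expressed as percent relative to DMSO-only wells, read at 485/525 nm after serial-dilution addition (0.5% DMSO final). Cells were hGPR120/Gα16 CHO-K1, seeded 18 h earlier and dye-loaded for 1 h at 37°C.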

The EC50 is the concentration needed to bring the measured effect to its halfway point.

Turning to `CC(C)COCc1cc(-c2cc(F)c(OCCCC(=O)O)c(F)c2)cs1` [Example 572, 4-[2,6-difluoro-4-(5-isobutoxymethyl-thiophen-3-yl)-phenoxy]-butanoic acid], the EC50 is less than 200 nM.

For `O=C(O)CCCOc1c(F)cc(-c2csc(COC3CCC3)c2)cc1F` [Example 573, 4-[4-(5-cyclobutoxymethyl-thiophen-3-yl)-2,6-difluoro-phenoxy]-butanoic acid], the EC50 was less than 200 nM.

For `O=C(O)CCCOc1c(F)cc(-c2sccc2COCC2CC2)cc1F` [Example 574, 4-[4-(3-cyclopropylmethoxymethyl-thiophen-2-yl)-2,6-difluoro-phenoxy]-butanoic acid], the EC50 was less than 200 nM.

`Cc1cc(OC2CCC2)nc(-c2cc(F)c(N3CCC(CC(=O)O)C3)c(F)c2)n1` (stereo not shown) [Example 575, {1-[4-(4-cyclobutoxy-6-methyl-pyrimidin-2-yl)-2,6-difluoro-phenyl]-pyrrolidin-3-yl}-acetic acid]: the EC50 was in the range of 200 to 2000 nM.

Regarding `Cc1cc(OCC2CC2)nc(-c2cc(F)c(N3CCC(CC(=O)O)C3)c(F)c2)n1` (stereo not shown) [Example 576, {1-[4-(4-cyclopropylmethoxy-6-methyl-pyrimidin-2-yl)-2,6-difluoro-phenyl]-pyrrolidin-3-yl}-acetic acid], the EC50 is less than 200 nM.

Regarding `Cc1cc(OC2CCC2)nc(-c2cc(F)c(N3CCC(CC(=O)O)C3)c(F)c2)c1` (stereo not shown) [Example 577, {1-[4-(6-cyclobutoxy-4-methyl-pyridin-2-yl)-2,6-difluoro-phenyl]-pyrrolidin-3-yl}-acetic acid], the EC50 lay in the range of 200 to 2000 nM.

On to `O=C(O)CC1CCN(c2c(F)cc(-c3cncc(OC4CCC4)n3)cc2F)C1` (stereo not shown) [Example 578, {1-[4-(6-cyclobutoxy-pyrazin-2-yl)-2,6-difluoro-phenyl]-pyrrolidin-3-yll}-acetic acid], for which the EC50 was less than 200 nM.

For the compound `O=C(O)CC1CCN(c2c(F)cc(-c3nccc(OC4CCC4)n3)cc2F)C1` (stereo not shown) [Example 579, {1-[4-(4-cyclobutoxy-pyrimidin-2-yl)-2,6-difluoro-phenyl]-pyrrolidin-3-yl}-acetic acid], the EC50 was less than 200 nM.

`O=C(O)CC1CCN(c2c(F)cc(-c3cncc(OCC4CC4)n3)cc2F)C1` (stereo not shown) [Example 580, {1-[4-(6-cyclopropylmethoxy-pyrazin-2-yl)-2,6-difluoro-phenyl]-pyrrolidin-3-yl}-acetic acid]: the EC50 is less than 200 nM.

Take `O=C(O)CC1CCN(c2c(F)cc(-c3nccc(OCC4CC4)n3)cc2F)C1` (stereo not shown) [Example 581, {1-[4-(4-cyclopropylmethoxy-pyrimidin-2-yl)-2,6-difluoro-phenyl]-pyrrolidin-3-yl}-acetic acid]: the EC50 is less than 200 nM.

For the compound `O=C(O)CC1CCN(c2c(F)cc(-c3csc(OC4CCC4)n3)cc2F)C1` (stereo not shown) [Example 582, {1-[4-(2-cyclobutoxy-thiazol-4-yl)-2,6-difluoro-phenyl]-pyrrolidin-3-yll}-acetic acid], the EC50 was 200 to 2000 nM.

On to `O=C(O)CC1CCN(c2c(F)cc(-c3csc(OCC4CC4)n3)cc2F)C1` (stereo not shown) [Example 583, {1-[4-(2-cyclopropylmethoxy-thiazol-4-yl)-2,6-difluoro-phenyl]-pyrrolidin-3-yl}-acetic acid], for which the EC50 lay in the range of 200 to 2000 nM.

As for `COc1cncc(-c2cc(F)c(N3CCC(CC(=O)O)C3)c(F)c2)n1` (stereo not shown) [Example 584, {1-[2,6-difluoro-4-(6-methoxy-pyrazin-2-yl)-phenyl]-pyrrolidin-3-yl}-acetic acid], the EC50 was in the range of 200 to 2000 nM.

Consider `CCOc1cncc(-c2cc(F)c(N3CCC(CC(=O)O)C3)c(F)c2)n1` (stereo not shown) [Example 585, {1-[4-(6-ethoxy-pyrazin-2-yl)-2,6-difluoro-phenyl]-pyrrolidin-3-yl}-acetic acid], for which the concentration giving a half-maximal response (EC50) was less than 200 nM.

As to `CC(C)Oc1cncc(-c2cc(F)c(N3CCC(CC(=O)O)C3)c(F)c2)n1` (stereo not shown) [Example 586, {1-[2,6-difluoro-4-(6-isopropoxy-pyrazin-2-yl)-phenyl]-pyrrolidin-3-yl}-acetic acid], the EC50 is less than 200 nM.

`Cc1cc(OC(C)C)nc(-c2cc(F)c(N3CCC(CC(=O)O)C3)c(F)c2)n1` (stereo not shown) [Example 587, {1-[2,6-difluoro-4-(4-isopropoxy-6-methyl-pyrimidin-2-yl)-phenyl]-pyrrolidin-3-yl}-acetic acid]: the EC50 is 200 to 2000 nM.

On to `CCCOc1cc(C)nc(-c2cc(F)c(N3CCC(CC(=O)O)C3)c(F)c2)n1` (stereo not shown) [Example 589, {1-[2,6-difluoro-4-(4-methyl-6-propoxy-pyrimidin-2-yl)-phenyl]-pyrrolidin-3-yl}-acetic acid], for which the EC50 is less than 200 nM.

With `CCOc1cc(C)nc(-c2cc(F)c(N3CCC(CC(=O)O)C3)c(F)c2)n1` (stereo not shown) [Example 590, {1-[4-(4-ethoxy-6-methyl-pyrimidin-2-yl)-2,6-difluoro-phenyl]-pyrrolidin-3-yl}-acetic acid], the EC50 was less than 200 nM.

For the compound `Cc1nsc(OC2CCC2)c1-c1cc(F)c(N2CCC(CC(=O)O)C2)c(F)c1` (stereo not shown) [Example 591, {1-[4-(5-cyclobutoxy-3-methyl-isothiazol-4-yl)-2,6-difluoro-phenyl]-pyrrolidin-3-yl}-acetic acid], the EC50 is less than 200 nM.

Turning to `O=C(O)CC1CCN(c2c(F)cc(-c3ncc(F)c(OC4CCC4)n3)cc2F)C1` (stereo not shown) [Example 592, {1-[4-(4-cyclobutoxy-5-fluoro-pyrimidin-2-yl)-2,6-difluoro-phenyl]-pyrrolidin-3-yl}-acetic acid], the EC50 lay in the range of 200 to 2000 nM.

Take `O=C(O)CC1CCN(c2c(F)cc(-c3ncc(F)c(OCC4CC4)n3)cc2F)C1` (stereo not shown) [Example 593, {1-[4-(4-cyclopropylmethoxy-5-fluoro-pyrimidin-2-yl)-2,6-difluoro-phenyl]-pyrrolidin-3-yl}-acetic acid]: the EC50 fell in the range of 200 to 2000 nM.

With `CC(C)COc1nc(-c2cc(F)c(N3CCC(CC(=O)O)C3)c(F)c2)ncc1F` (stereo not shown) [Example 594, {1-[2,6-difluoro-4-(5-fluoro-4-isobutoxy-pyrimidin-2-yl)-phenyl]-pyrrolidin-3-yl}-acetic acid], the EC50 was 200 to 2000 nM.

As for `COCCCOc1cccc(-c2cc(F)c(N3CCC(CC(=O)O)C3)c(F)c2)n1` (stereo not shown) [Example 595, (1-{2,6-difluoro-4-[6-(3-methoxy-propoxy)-pyridin-2-yl]-phenyl}-pyrrolidin-3-yl)-acetic acid], the EC50 was in the range of 200 to 2000 nM.

Consider `O=C(O)CC1CCN(c2c(F)cc(-c3cccc(OC4CCSCC4)n3)cc2F)C1` (stereo not shown) [Example 596], for which the EC50 lay within 200 to 2000 nM.

In the case of `CC(C)COc1nc(-c2cc(F)c(N3CCC(CC(=O)O)CC3)c(F)c2)ncc1F` [Example 597, {1-[2,6-difluoro-4-(5-fluoro-4-isobutoxy-pyrimidin-2-yl)-phenyl]-piperidin-4-yl}-acetic acid], the EC50 is 200 to 2000 nM.

In the case of `CCCOc1nc(-c2cc(F)c(N3CCC(CC(=O)O)CC3)c(F)c2)ncc1F` [Example 598, {1-[2,6-difluoro-4-(5-fluoro-4-propoxy-pyrimidin-2-yl)-phenyl]-piperidin-4-yl}-acetic acid], the EC50 is less than 200 nM.

Regarding `CC(C)CCOc1ccnc(-c2cc(F)c(N3CCC(CC(=O)O)CC3)c(F)c2)n1` [Example 599, (1-{2,6-difluoro-4-[4-(3-methyl-butoxy)-pyrimidin-2-yl]-phenyl}-piperidin-4-yl)-acetic acid], the EC50 fell in the range of 200 to 2000 nM.

For the compound `COCCCOc1ccnc(-c2cc(F)c(N3CCC(CC(=O)O)CC3)c(F)c2)n1` [Example 600, (1-{2,6-difluoro-4-[4-(3-methoxy-propoxy)-pyrimidin-2-yl]-phenyl}-piperidin-4-yl)-acetic acid], the EC50 was in the range of 200 to 2000 nM.

Source of the values: patent US11261186B2, “Biaryl derivative as GPR120 agonist” (LG CHEM, LTD., priority 2014, dated 2022).
